Here are results for 56 molecules from patent US4461907A, “Amino-substituted flavans useful as anti-viral agents” (priority 1978, dated 1984).

Each structure is given as a SMILES string. Where two headings read alike, the source gives them in different places.

For one data set, the system named is rhinovirus serotype 1B. Nature of the data set: plaque reduction test. The data set is classed as cell-based. Particulars: Enterovirus. From the text: Plaque suppression is proportional to compound concentration.
Data set [1] has as its system rhinoviruses. As to the kind of experiment: activity in tests (novel compounds).
Data set [2] deals with rhinoviruses. As to the kind of experiment: in vitro tests in culture.
In another data set the test system is viral hepatitis. The settings on record: Lancet;2;1153 (1977); cited from earlier work.
The nature of the next data set: in vivo. The settings on record: mouse, po.
[3] abbreviates: rhinovirus serotype 1B, plaque reduction test, read-out: ED50 (the source's name).

Protocol for in vivo: Retro-orbital bleedings were performed at half, an hour, and 1 hour after administration of the dose, and hourly thereafter to 7 hours, and again at 24 hours. The plasma was harvested from these bleedings and was tested for antiviral activity using the plaque inhibition test described above. The total faeces of each mouse were collected after 24 hours and were macerated with a minimum of absolute alcohol, which liquid was then tested for antiviral activity by the plaque inhibition test. The gall bladders of the mice were removed and each was extracted with 10 μl of absolute alcohol, which extract was also tested by the plaque inhibition test.

Regarding `Cc1cccc(C2CCc3ccccc3O2)c1` (stereo not drawn) [3'-methyl-, 3'-methylflavan], the EC50 in the data set with rhinovirus serotype 1B (setting [3]) was determined as 290 nM. On the same count and under the same terms, the result for `Ic1ccc(C2CCc3cc(I)ccc3O2)cc1` (stereo not drawn) [4',6-diiodo-, 4',6-diiodo] reads 43 nM. For `Brc1ccc(C2CCc3cc(Br)ccc3O2)cc1` (stereo not drawn) [4',6-dibromo-, 4',6-dibromoflavan], the EC50 with rhinovirus serotype 1B (setting [3]) was 8 nM. The activity in tests result in the data set on rhinoviruses [1] is reported as “highest activity in tests”. For `Fc1ccc2c(c1)CCC(c1ccc(Cl)cc1)O2` (stereo not drawn) [4'-chloro-6-fluoro-, 6-fluoro-4'-chloroflavan], in that order: 15 nM and “highest activity in tests”. Take `Cc1ccc(C2CCc3cc(Br)ccc3O2)cc1` (stereo not drawn) [6-bromo-4'-methyl-, 6-bromo-4'-methylflavan]: the EC50 in the data set with rhinovirus serotype 1B (setting [3]) was found to be 18 nM.

Consider `Cc1ccc(C2CCc3cc(Cl)ccc3O2)cc1` (stereo not drawn) [4'-methyl-6-chloro-, 6-Chloro-4'-methyl-flavan], for which the EC50 in the data set with rhinovirus serotype 1B (setting [3]) was determined as 2.3 nM. In addition, the activity in tests result in the data set with rhinoviruses [1] was “highest activity in tests”. For `Fc1ccc2c(c1)CCC(c1ccc(Br)cc1)O2` (stereo not drawn) [4'-bromo-6-fluoro-, 6-fluoro-4'-bromoflavan], in that order: 13 nM and “highest activity in tests”. Take `Clc1ccc(C2CCc3ccccc3O2)cc1Cl` (stereo not drawn) [3',4'-dichloro-, 3',4'-Dichloro-flavan]: in the data set with rhinovirus serotype 1B (setting [3]), the EC50 amounted to 40 nM. On the same count and under the same terms, the result for `Clc1cccc(Cl)c1C1CCc2ccccc2O1` (stereo not drawn) [2',6'-dichloro-, 2',6'-Dichloroflavan] reads 48 nM.

As for `Clc1ccccc1C1CCc2ccccc2O1` (stereo not drawn) [2'-chloro-, 2'-chloroflavan], the EC50 in the data set on rhinovirus serotype 1B (setting [3]) is 112 nM. `Brc1ccc2c(c1)CCC(c1ccc(I)cc1)O2` (stereo not drawn) [6-bromo-4'-iodo-, 6-bromo-4'-iodo]: the EC50 with rhinovirus serotype 1B (setting [3]) turned out to be 21 nM. Same read-out and setting: under `N#Cc1ccc2c(c1)CCC(c1ccccc1)O2` (stereo not drawn) [Example 6-cyano-, 6-cyano] stands 38 nM; under `Cc1ccc(C2CCc3ccc(Cl)cc3O2)cc1` (stereo not drawn) [4'-methyl-7-chloro-, 7-Chloro-4'-methyl-flavan], 83 nM. Same read-out and setting: under `Clc1ccc(C2CCc3ccc(Cl)cc3O2)cc1` (stereo not drawn) [4',7-dichloro-, 4',7-Dichloroflavan] stands 48 nM; under `CC(=O)Oc1ccc(C2CCc3ccccc3O2)cc1` (stereo not drawn) [4'-acetoxyl-], 67 nM. For `Fc1ccc(C2CCc3ccccc3O2)cc1` (stereo not drawn) [4'-fluoro-, 4'-flouroflavan], the EC50 in the data set with rhinovirus serotype 1B (setting [3]) came out at 17.5 nM. Moreover, the activity in tests entry with rhinoviruses [1] is “highest activity in tests”. For `Oc1ccccc1C1CCc2ccccc2O1` (stereo not drawn) [2'-hydroxyl-, 2'-hydroxyflavan], in the data set with rhinovirus serotype 1B (setting [3]), the EC50 stood at 780 nM. Still for that read-out and setting: under `Clc1ccc2c(c1)CCC(c1ccccc1)O2` (stereo not drawn) [Example 6-chloro-, 6-chloroflavan] stands 50 nM; under `CC(C)c1ccc(C2CCc3cc(Cl)ccc3O2)cc1` (stereo not drawn) [6-chloro-4-(1-methylethyl), 6-chloro 4'-isopropylflavan], 36 nM. Take `Clc1ccc(C2CCc3ccccc3O2)c(Cl)c1` (stereo not drawn) [2',4'-dichloro-, 2',4'-Dichloro-flavan]: the EC50 in the data set on rhinovirus serotype 1B (setting [3]) is 64 nM. In the case of `Clc1ccc(C2CCc3cc(Br)ccc3O2)cc1` (stereo not drawn) [6-bromo-4'-chloro-, 6-bromo-4'-chloro-flavan], the EC50 with rhinovirus serotype 1B (setting [3]) was 5 nM.

As for `Ic1ccc2c(c1)CCC(c1ccccc1)O2` (stereo not drawn) [Example 6-iodo-, 6-iodo], in the data set with rhinovirus serotype 1B (setting [3]), the EC50 came to 58 nM. On the same count and under the same terms, the result for `Nc1ccc(C2CCc3ccccc3O2)cc1` (stereo not drawn) [4'-amino-, 4'-aminoflavan] reads 50 nM; that for `Clc1ccc2c(c1)OC(c1ccccc1)CC2` (stereo not drawn) [Example 7-chloro-, 7-Chloroflavan], 70 nM; that for `Brc1ccc(C2CCc3ccccc3O2)cc1` (stereo not drawn) [4'-bromo-, 4'-Bromoflavan], 36 nM. Regarding `Cc1ccc2c(c1)OC(c1ccc(Cl)cc1)CC2` (stereo not drawn) [4'-chloro-7-methyl-, 4'-chloro-7-methyl-flavan], the EC50 in the data set on rhinovirus serotype 1B (setting [3]) amounted to 15.5 nM. The activity in tests result with rhinoviruses [1] is listed as “highest activity in tests”. `COc1ccc(C2CCc3cc(C)ccc3O2)cc1` (stereo not drawn) [4'-methoxyl-6-methyl-, 4'-Methoxy-6-methyl-flavan]: the EC50 with rhinovirus serotype 1B (setting [3]) turned out to be 100 nM. Same read-out and setting: under `Brc1ccc2c(c1)CCC(c1ccccc1)O2` (stereo not drawn) [Example 6-bromo-, 6-bromo flavan] stands 19 nM. With `Fc1ccc(C2CCc3cc(Cl)ccc3O2)cc1` (stereo not drawn) [6-chloro-4'-fluoro, 6-chloro-4'-fluoro-flavan], in the data set on rhinovirus serotype 1B (setting [3]), the EC50 is 16 nM. For the same molecule, the activity in tests result in the data set with rhinoviruses [1] was “highest activity in tests”. Turning to `Cc1ccc(C2CCc3cc(C)ccc3O2)cc1` (stereo not drawn) [4',6-dimethyl-, 4',6-Dimethylflavan], the EC50 in the data set with rhinovirus serotype 1B (setting [3]) stood at 42 nM. Regarding `Fc1ccc(C2CCc3cc(F)ccc3O2)cc1` (stereo not drawn) [4',6-difluoro-, 4'-6-difluoro], in the data set with rhinovirus serotype 1B (setting [3]), the EC50 worked out at 68 nM. For the molecule `N#Cc1ccc(C2CCc3cc(C#N)ccc3O2)cc1` (stereo not drawn) [4',6-cyano, 4',6-dicyanoflavan], in the data set with rhinovirus serotype 1B (setting [3]), the EC50 is greater than 10 nM. In addition, the activity in tests result in the data set with rhinoviruses [1] is on record as “highest activity in tests”.

As for `Clc1ccc(C2CCc3cc(I)ccc3O2)cc1` (stereo not drawn) [4'-chloro-6-iodo-, 6-iodo-4'-chloroflavan], the EC50 in the data set with rhinovirus serotype 1B (setting [3]) is 15 nM. Moreover, the activity in tests result with rhinoviruses [1] was “highest activity in tests”. As to `Cc1ccccc1C1CCc2ccccc2O1` (stereo not drawn) [2'-methyl-, 2'-Methylflavan], in the data set on rhinovirus serotype 1B (setting [3]), the EC50 was determined as 15 nM. With `CCc1ccc2c(c1)CCC(c1ccc(Cl)cc1)O2` (stereo not drawn) [4'-chloro-6-ethyl-, 4'-chloro-6-ethyl-flavan], the EC50 in the data set on rhinovirus serotype 1B (setting [3]) turned out to be 52 nM. Turning to `N#Cc1ccc2c(c1)CCC(c1ccc(Cl)cc1)O2` (stereo not drawn) [4'-chloro-6-cyano, 6-cyano-4'-chloroflavan], in the data set with rhinovirus serotype 1B (setting [3]), the EC50 was found to be 6 nM. Besides, the activity in tests entry in the data set with rhinoviruses [1] is on record as “highest activity in tests”. As for `Brc1ccc(C2CCc3cc(I)ccc3O2)cc1` (stereo not drawn) [4'-bromo-6-iodo], the EC50 in the data set on rhinovirus serotype 1B (setting [3]) worked out at 76 nM. As for `COc1ccc2c(c1)CCC(c1ccccc1)O2` (stereo not drawn) [Example 6-methoxyl-, 6-methoxyflavan], the EC50 in the data set with rhinovirus serotype 1B (setting [3]) is 12.5 nM. Also, the activity in tests result in the data set on rhinoviruses [1] is “highest activity in tests”.

On to `Cc1ccc(C2CCc3ccccc3O2)cc1` (stereo not drawn) [4'-methyl-, 4'-methylflavan], for which, in the data set with rhinovirus serotype 1B (setting [3]), the EC50 was 12.5 nM. The activity in tests entry in the data set on rhinoviruses [1] is reported as “highest activity in tests”. For `FC(F)(F)c1cccc(C2CCc3ccccc3O2)c1` (stereo not drawn) [3'-trifluoromethyl, 3'-trifluoromethyl-flavan], in the data set on rhinovirus serotype 1B (setting [3]), the EC50 turned out to be 1400 nM. Take `Clc1ccc(C2CCc3ccccc3O2)cc1` (stereo not drawn) [4'-chloro-, 4'-chloroflavan]: the EC50 in the data set with rhinovirus serotype 1B (read-out: ED50) is 40 nM. For the molecule `COc1ccc(C2CCc3cc(Cl)ccc3O2)cc1` (stereo not drawn) [4'-methoxyl-6-chloro-, 6-Chloro-4'-methoxy-flavan], in the data set with rhinovirus serotype 1B (setting [3]), the EC50 amounted to 13 nM. The activity in tests entry in the data set on rhinoviruses [1] is on record as “highest activity in tests”.

In the case of `Fc1ccc(C2CCc3cc(Br)ccc3O2)cc1` (stereo not drawn) [6-bromo-4'-fluoro], the EC50 in the data set with rhinovirus serotype 1B (setting [3]) is 29 nM. As for `Clc1ccc2c(c1)CCC(c1ccc(Br)cc1)O2` (stereo not drawn) [4'-bromo-6-chloro, 4'-bromo-6-chloro-flavan], the EC50 in the data set on rhinovirus serotype 1B (setting [3]) was 21 nM. Still for that read-out and setting: the result for `Clc1cccc(C2CCc3ccccc3O2)c1` (stereo not drawn) [3'-chloro-, 3'-chloroflavan] reads 270 nM; that for `Cc1ccc2c(c1)CCC(c1ccccc1)O2` (stereo not drawn) [Example 6-methyl-, 6-methylflavan], 150 nM.

For `Fc1ccc2c(c1)CCC(c1ccccc1)O2` (stereo not drawn) [Example 6-fluoro-, 6-fluoro flavan], the EC50 in the data set with rhinovirus serotype 1B (setting [3]) is 20 nM. The same measure, in the same setting: under `CN(C)c1ccc(C2CCc3ccccc3O2)cc1` (stereo not drawn) [4'-N,N--dimethylamino-, 4'-(N,N-dimethylamino)flavan] stands 265 nM. On the same count and under the same terms, under `COc1ccc(C2CCc3ccccc3O2)cc1` (stereo not drawn) [4'-methoxyl-, 4'-methoxyflavan] stands 70 nM. On the same count and under the same terms, under `Fc1ccc(C2CCc3cc(I)ccc3O2)cc1` (stereo not drawn) [4'-fluoro-6-iodo, 6-iodo-4'-fluoro] stands 28 nM.

Turning to `c1ccc(C2CCc3ccccc3O2)cc1` (stereo not drawn) [flavan, Flavan], the EC50 with rhinovirus serotype 1B (setting [3]) turned out to be 46 nM. For the same molecule, in the data set on rhinoviruses [2], the activity against rhinoviruses entry is reported as “quite good activity against rhinoviruses”. Turning to `OC1Cc2ccccc2OC1c1ccccc1` (stereo not drawn) [-3-hydroxy flavan], the “effect against viral hepatitis” value in the data set on viral hepatitis was “without success”. In the case of `Oc1ccc(C2CCc3ccccc3O2)cc1` (stereo not drawn) [4'-hydroxy-, 4'-hydroxyflavan], the EC50 with rhinovirus serotype 1B (setting [3]) was 60 nM. In the case of `COc1cccc(C2CCc3ccccc3O2)c1` (stereo not drawn) [3'-methoxyl-, 3'-methoxyflavan], the EC50 in the data set with rhinovirus serotype 1B (setting [3]) came out at 125 nM. As to `Cc1ccc2c(c1)CCC(c1ccc(Cl)c(Cl)c1)O2` (stereo not drawn) [3',4'-dichloro-6-methyl-, 3',4'-Dichloro-6-methylflavan], the EC50 with rhinovirus serotype 1B (setting [3]) came out at 17 nM. Also, in the data set on rhinoviruses [1], the activity in tests result is on record as “highest activity in tests”. For `Clc1ccc(C2CCc3cc(Cl)ccc3O2)cc1` (stereo not drawn) [4',6-dichloro-, 4',6-Dichloroflavan], the concentration at 1 h in “in vivo” (30 mg/kg) is 2 to 4 µM; in “in vivo” (100 mg/kg) it was 10 µM.
